Like-named read-outs stand apart in the source and are kept apart here. Bridge positions count the residues as written; N and C are the ends. Peptide text beside a SMILES is read from it.
Experiments:
[1] = in vitro; conditions: human, EDTA plasma
[2] = LPS neutralization assay (Limulus amoebocyte lysate); format: biochemical, Escherichia coli; conditions: LAL assay, 0–10 µg/ml, N = 4
Description: To each sample 25 µl of Limulus amoebocyte lysate (LAL; Lonza) was added and incubated for 10 min at 37°C after which 100 µl of LAL substrate was added and incubated for 6 min at 37°C. Reactions were quenched with 50 µl of 25% HOAc and read spectrophotometrically at 405 nm.

[3] = system: leukocytes / target cells; assay: Cytotoxicity by trypan blue staining in the in vitro incubations; format: cell-based, human; conditions: TNF release incubations in blood, 4 h
[4] = system: BALB/c mice challenged with E. coli K12; conditions: 8×10^8 CFU E. coli K12 i.p., single s.c. dose 5 mg/kg at challenge, n = 13
[5] = ref D. Tran & M.E. Selsted, unpublished data, cited from earlier work
[6] = human whole blood, data not shown
[7] = mouse whole blood, data not shown
[8] = system: BALB/c mice with CLP polymicrobial sepsis; assay: Cecal-ligation/puncture (CLP) induced sepsis; format: in vivo, mouse
Description: Polymicrobial peritonitis was induced in 6–8 week old BALB/c mice by CLP as described, [21]. Briefly, laparotomy was performed on anesthetized animals and the cecum was ligated below the ileocecal valve. Both walls of the cecum were punctured twice with an 18-gauge needle, and the surgical wound closed with 3–0 nylon suture. All animals fully recovered within 60 min. […] Animal health was evaluated daily for 28 days. As above, mice were euthanized when they became moribund.

[9] = system: SARS-coronavirus (SARS-CoV); conditions: cited from earlier work
[10] = system: host cells; conditions: cited from earlier work
From the text: The only detected tissue effect as ...

[11] = system: human peripheral blood leukocytes (PBL); assay: Cytokine/chemokine release by TLR agonist-stimulated peripheral blood leukocytes (Milliplex); format: cell-based
Description: EDTA-anticoagulated blood was obtained from healthy adult volunteers as approved by the Institutional Review Board at USC (protocol # HS-09-00280). Peripheral blood leukocytes (PBL) were harvested from 10–15 ml whole blood after centrifugation at 200× g. Cells were washed twice with 3–5 ml of RPMI, counted with a hemocytometer, and suspended to a cell density of 5×10^5 cells/ml in RPMI +5% human EDTA-plasma. PBLs were stimulated for 4 h with either 0.9 µg/ml ssRNA40, 30 ng/ml S. typhimurium flagellin, 3.3×10^7 CFU/ml heat-killed L. monocytogenes (HKLM), 3 ng/ml E. coli K12 LPS, or 100 CFU/ml of the clinical E. coli isolate. Cytokines/chemokines were quantified using a Milliplex MAP kit on a BioRad Bioplex HTF Luminex reader at the Beckman Center for Immune Monitoring at USC-Norris Cancer Center.

[12] = system: E. coli; assay: Killing of E. coli during pre-incubation with peptide; format: cell-based, Escherichia coli; conditions: 100 CFU/ml E. coli, 10 µg/ml peptide in RPMI
[13] = rat whole blood, data not shown
[14] = system: DA rats; design: method as in Schaal et. al, manuscript in preparation; conditions: repetitive (8–15 injections) s.c. challenge, after 8 weeks; ref Schaal et. al, manuscript in preparation; cited from earlier work
[15] = system: human EDTA-anti-coagulated blood diluted 1∶10; assay: TNF release assay in stimulated diluted whole blood (ELISA); format: cell-based
[16] = system: THP-1 monocytic cells; assay: TNF release assay in LPS-stimulated THP-1 monocytes (ELISA); format: cell-based, human; conditions: THP-1 in RPMI +5% human EDTA-plasma, 1 ng/ml K12 LPS, 4 h, N = 2
Description: THP-1 monocytic cells (ATCC, Manassas, VA) were grown and maintained in RPMI-1640 medium containing 10% fetal bovine serum and penicillin/streptomycin. Cells were harvested by centrifugation, washed with RPMI-1640 medium and suspended at 5×10^5 cells/ml in fresh medium containing 5% human EDTA plasma.
Peptides (RTDs 1–5, human neutrophil α-defensins) were aliquoted into wells of pyrogen-free 12- or 24-well plates wherein final peptide concentrations were 0–10 µg/ml. Wells were inoculated with 1×10^5 CFU/ml S. aureus or 100 CFU/ml E. coli, or 1–3 ng/ml of E. coli K12 LPS. Samples (5–10 µl) containing peptide or bacteria/LPS were placed on opposite sides of the plate well. Mixing commenced with the addition of 0.5 to 2.0 ml of 1∶10 diluted blood, PBLs (5×10^5/ml), or THP-1 cells (2–5×10^5 cells/ml). Plates were incubated at 37°C in 5% CO2 for 4 h with gentle mixing. […] Incubation mixtures were centrifuged at 200× g for 10 min at 22°C and supernatants were clarified by centrifugation at 23,000× g for 15 min at 4°C. Supernatant TNF was quantified by sandwich ELISA (OptEIA II; BD Biosciences; Hu TNF-α, Invitrogen) per suppliers’ directions, using a SpectraMax Plate Reader.

[17] = system: BALB/c mice; assay: Mouse exposure study, repeated subcutaneous injection; format: in vivo
Description: Twenty four h after the fourth injection, mice were euthanized with CO2, blood was collected by cardiac puncture, and tissues were harvested and fixed in 10% buffered formalin. Histopathologic examination was performed on sections of heart, lung, liver, spleen, kidney, and injection site skin and subcutaneous tissue. A basic metabolic panel (UC Davis-William R. Pritchard Veterinary Medical Teaching Hospital) was performed on serum samples obtained by cardiac puncture at the time of euthanasia.

[18] = PBL stimulated 4 h with 0.9 µg/ml ssRNA40 (TLR8 agonist), simultaneous addition of 10 µg/ml peptide

CC[C@H](C)[C@@H]1NC(=O)[C@@H]2CSSC[C@H](NC(=O)[C@H](CCCNC(=N)N)NC(=O)[C@@H]3CSSC[C@H](NC1=O)C(=O)N[C@@H]([C@@H](C)O)C(=O)N[C@@H](CCCNC(=N)N)C(=O)NCC(=O)N[C@@H](Cc1ccccc1)C(=O)N3)C(=O)N[C@@H](CC(C)C)C(=O)N[C@H]1CSSC[C@H](NC(=O)[C@H](C(C)C)NC(=O)CNC(=O)[C@H](CCCNC(=N)N)NC(=O)[C@H](CCCNC(=N)N)NC1=O)C(=O)N[C@@H](CCCNC(=N)N)C(=O)N2 [RTD-1] (cyclo(GFCRCLCRRGVCRCICTR); disulfide 3-16, 5-14, 7-12)
remaining at 72 h, 50 µg/ml [1]: 93%
effectiveness in neutralizing E. coli LPS relative to polymyxin B (fold less effective) ([2]; 10 min 37°C): 50–100 fold
neutralization of E. coli LPS [2]: ineffective in neutralizing
cytotoxicity (trypan blue staining of leukocytes) [3]: no cytotoxicity was detected
survival [4]: significantly improved survival
stability to heating ([5]; 100°C, 30 min): completely stable
stability to extended storage at pH 2.0 ([5]; pH 2.0): completely stable
time highly stable in whole blood [6]: at least 24 h
time highly stable in whole blood [7]: at least 24 h
long term survival ([8]; single i.v. dose administered 4 h after CLP surgery, 28 days): 10 of 11
recovery / survival ([8]; single i.v. dose delayed until 24 h post CLP, through end of trial): 4 of 5
virus neutralization in vitro [9]: did not neutralize the virus
toxicity to host cells in vitro [10]: non-toxic
effect on induced levels of chemokines CXCL8 (IL-8), CCL2 (MCP-1), CCL3 (MIP-1α), CCL4 (MIP-1β) ([11]; HKLM-stimulated PBL, 10 µg/ml peptide, 4 h): no suppression
suppression of supernatant IL-1β level [11, 18]: 95%
suppression of supernatant IL-8 level [11, 18]: 68%
effect on VEGF-A ([11]; RTD-1 treatment of PBLs): reproducible elevation
effect of peptide alone on cytokine/chemokine release ([11]; unstimulated leukocytes, 10 µg/ml peptide alone, exception VEGF and to a lesser degree CCL2 (MCP-1)): little effect
time to killing of E. coli (absence of viable bacteria) [12]: ≤ 30 min
time highly stable in whole blood [13]: at least 24 h
anti-RTD-1 antibody [14]: no anti-RTD-1 antibody
blockade of TNF release ([15]; E. coli pre-treated with 10 µg/ml peptide for 0–120 min before addition of blood, 4 h, all time-points): complete blockade
hierarchy of anti-TNF potencies ([15]; E. coli-stimulated blood, 4 h, N = 2): RTD-5>2>1>4>3
effect of peptide alone on TNF release ([15]; blood incubated 4 h with peptide alone, no stimulus): no effect
hierarchy of anti-TNF potencies [16]: RTD-5>2>1>4>3
incidence of focal, non-erythematous swelling at injection site ([17]; 40 mg/kg s.c. daily, at day 4): 2/4
incidence of focal, non-erythematous swelling at injection site ([17]; 160 mg/kg s.c. daily, by day 3): 4/4
histopathology of lungs, kidneys, heart, liver, spleen ([17]; after 4 day dosing regimen, all peptide levels tested): no abnormalities
serum chemistries ([17]; daily s.c. injections for 4 days, 2.5–160 mg/kg, basic metabolic panel): indistinguishable from saline-treated controls
acute toxicity ([17]; daily s.c. injections for 4 days, up to 160 mg/kg (highest dose tested), groups of four): no acute toxicity was observed
lobular panniculitis with fat necrosis at injection site ([17]; multiple injections of 2.5 or 10 mg/kg): absent

Reference: publication PMC3516535, “Rhesus Macaque Theta Defensins Suppress Inflammatory Cytokines and Enhance Survival in Mouse Models of Bacteremic Sepsis” (PLoS ONE, 2012)
